EC50 data for 59 compounds are collected here from patent publication US11390631B1, “Benzodiazepine derivatives as RSV inhibitors” (priority 2015, dated 2022).

In this assay the test system is Human RSV-A (“Long” strain). As to the kind of experiment: RSV-A assay: inhibition of cytopathic effect in Hep-2 cells, ATPlite readout. The assay is classed as cell-based, Human respiratory syncytial virus (HRSV). To be noted: human respiratory syncytial virus, HEp-2, 120 h, read-out: Human RSV-A (“Long” strain) EC50. Summed up: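 Cytopathic-effect protection was read as ATP content (ATPlite luminescence) after a 5-day incubation. Setup: Hep-2 cells at 8,000 per well, RSV-A Long at MOI 0.1, 2-fold serial compound dilutions in duplicate. Cytotoxicity (CC50) was measured on an identical uninfected plate run in parallel.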

By EC50 is commonly meant the concentration that produces a half-maximal response. `C[C@@H]1COCCN1c1cc(C#N)ccc1-c1nnc(N[C@H]2N=C(c3ccccc3)c3ccccc3NC2=O)o1` [Example 285]: the EC50 was under 400 nM. On to `Cc1ccc(-c2nnc(N[C@H]3N=C(c4ccccc4)c4ccccc4NC3=O)o2)c(N2CCOC[C@H]2C)n1` [Example 286], for which the EC50 is under 400 nM. Next, `O=C1Nc2ccccc2C(c2ccccc2)=NC1Nc1nnc(C23CCN(CC2)CC3)o1` (centres unmarked) [Example 287]: over 800 nM.

As for `O=C1Nc2ccccc2C(c2ccccc2)=N[C@@H]1Nc1nnc(-c2ccc(F)cc2N2CC3CCC(C2)O3)o1` [Example 288], the EC50 is 400 to 800 nM. Regarding `N#Cc1ccc(-c2nnc(N[C@H]3N=C(c4ccccc4)c4ccccc4NC3=O)o2)c(N2C3CCC2COC3)c1` [Example 289], the EC50 was under 400 nM. Turning to `O=C1Nc2ccccc2C(c2ccccc2)=N[C@@H]1Nc1nnc(-c2cnc(C(F)(F)F)nc2N2CC3CCC(C2)O3)o1` [Example 290], the EC50 is over 800 nM.

In the case of `N#Cc1c[nH]c2cc(-c3nnc(N[C@H]4N=C(c5ccccc5)c5ccccc5NC4=O)o3)ccc12` [Example 291], the EC50 was over 800 nM. For the compound `O=C1Nc2ccccc2C(c2ccccc2)=N[C@@H]1Nc1nnc(-c2nnsc2N2CCOCC2)o1` [Example 292], the concentration giving a half-maximal response (EC50) was under 400 nM. Then `O=C1Nc2ccccc2C(c2ccccc2)=N[C@@H]1Nc1nnc(-c2ncc(C(F)(F)F)cc2C2CC2)o1` [Example 293], with over 800 nM; and `C[C@@H]1COCCN1c1cc(C(F)(F)F)cnc1-c1nnc(N[C@H]2N=C(c3ccccc3)c3ccccc3NC2=O)o1` [Example 294], with under 400 nM. Then `COc1ccc(-c2nnc(N[C@H]3N=C(c4ccccc4)c4ccccc4NC3=O)o2)c(N2CCOCC2)n1` [Example 295], with under 400 nM; and `CN1CCN(c2cc(C(F)(F)F)cnc2-c2nnc(N[C@H]3N=C(c4ccccc4)c4ccccc4NC3=O)o2)CC1=O` [Example 296], with over 800 nM. Next, `CC(C)(O)CNc1cc(C(F)(F)F)cnc1-c1nnc(N[C@H]2N=C(c3ccccc3)c3ccccc3NC2=O)o1` [Example 297]: under 400 nM.

Turning to `COCCn1c(-c2nnc(N[C@H]3N=C(c4ccccc4)c4ccccc4NC3=O)o2)nc2ccccc21` [Example 298], the EC50 is over 800 nM. Next, `O=C1Nc2ccccc2C(c2ccccc2)=N[C@@H]1Nc1nnc(-c2ncc(F)cc2N2CC3CCC(C2)O3)o1` [Example 299]: under 400 nM; `C[C@@H]1COCCN1c1cc(C#N)cnc1-c1nnc(N[C@H]2N=C(c3ccccc3)c3ccccc3NC2=O)o1` [Example 301]: under 400 nM. Then `CN(C)c1cc(C(F)(F)F)cnc1-c1nnc(N[C@H]2N=C(c3ccccc3)c3ccccc3NC2=O)o1` [Example 302], with over 800 nM; and `COCCNc1cc(C(F)(F)F)cnc1-c1nnc(N[C@H]2N=C(c3ccccc3)c3ccccc3NC2=O)o1` [Example 305], with under 400 nM. For the compound `COCCn1ccnc1-c1nnc(N[C@H]2N=C(c3ccccc3)c3ccccc3NC2=O)o1` [Example 306], the EC50 is over 800 nM. On to `CNc1cc(C(F)(F)F)cnc1-c1nnc(N[C@H]2N=C(c3ccccc3)c3ccccc3NC2=O)o1` [Example 307], for which the EC50 is over 800 nM. `CN(CC(C)(C)O)c1cc(C(F)(F)F)cnc1-c1nnc(N[C@H]2N=C(c3ccccc3)c3ccccc3NC2=O)o1` [Example 308]: the EC50 was over 800 nM. Next, `N#Cc1ccc(-c2nnc(N[C@H]3N=C(c4ccccc4)c4ccccc4NC3=O)o2)c(-c2ccsc2)c1` [Example 309]: over 800 nM; `COCCn1nccc1-c1nnc(N[C@H]2N=C(c3ccccc3)c3ccccc3NC2=O)o1` [Example 310]: over 800 nM. `C#Cc1cnc(-c2nnc(N[C@H]3N=C(c4ccccc4)c4ccccc4NC3=O)o2)c(N2CCOCC2)c1` [Example 311]: the EC50 was under 400 nM.

As for `O=C1Nc2ccccc2C(c2ccccc2)=N[C@@H]1Nc1nnc(-c2ncc(C3=CCCCC3)cc2N2CCOCC2)o1` [Example 312], the EC50 is 400 to 800 nM.

Consider `O=C1Nc2ccccc2C(c2ccccc2)=N[C@@H]1Nc1nnc(-c2ncc(C3CCCCC3)cc2N2CCOCC2)o1` [Example 313], for which the EC50 is under 400 nM. For `O=C1Nc2ccccc2C(c2ccccc2)=N[C@@H]1Nc1nnc(-c2ncc(N3CCCC3)cc2N2CCOCC2)o1` [Example 314], the EC50 was under 400 nM. On to `O=C1Nc2ccccc2C(c2ccccc2)=N[C@@H]1Nc1nnc(-c2ncc3ccccc3c2N2CCOCC2)o1` [Example 316], for which the EC50 is over 800 nM. Take `O=C1Nc2ccccc2C(c2ccccc2)=N[C@@H]1Nc1nnc(-c2ccc(N3CCCC3)cc2N2CCOCC2)o1` [Example 317]: the EC50 was under 400 nM.

In the case of `O=C1Nc2ccccc2C(c2ccccc2)=N[C@@H]1Nc1nnc(-c2nc(C3CC3)ccc2N2CCOCC2)o1` [Example 318], the EC50 was under 400 nM. For the compound `N#Cc1ccc(-c2nnc(N[C@H]3N=C(c4ccccc4)c4ccccc4NC3=O)o2)c(-c2ccoc2)c1` [Example 319], the EC50 is over 800 nM. `Cc1noc(C)c1-c1cc(C#N)ccc1-c1nnc(N[C@H]2N=C(c3ccccc3)c3ccccc3NC2=O)o1` [Example 320]: the EC50 is over 800 nM.

With `O=C1Nc2ccccc2C(c2ccccc2)=N[C@@H]1Nc1nnc(-c2ncc(C3CC3)cc2N2CC3CCC(C2)O3)o1` [Example 321], the EC50 is under 400 nM. Then `N#Cc1cc(N2CCOCC2)c(-c2nnc(N[C@H]3N=C(c4ccccc4)c4ccccc4NC3=O)o2)s1` [Example 323], with under 400 nM; and `N#Cc1ccc(N2CCOCC2)c(-c2nnc(N[C@H]3N=C(c4ccccc4)c4ccccc4NC3=O)o2)n1` [Example 324], with under 400 nM; and `N#Cc1cnc(-c2nnc(N[C@H]3N=C(c4ccccc4)c4ccccc4NC3=O)o2)c(N2CCOCC2)c1` [Example 325], with under 400 nM. For `C[C@@H]1CN(c2cc(C#N)cnc2-c2nnc(N[C@H]3N=C(c4ccccc4)c4ccccc4NC3=O)o2)CCO1` [Example 326], the EC50 fell in the range of 400 to 800 nM. Take `CN1CCN(c2cc(C(F)(F)F)cnc2-c2nnc(N[C@H]3N=C(c4ccccc4)c4ccccc4NC3=O)o2)CC1` [Example 327]: the EC50 was 400 to 800 nM. `O=C1Nc2ccccc2C(c2ccccc2)=N[C@@H]1Nc1nnc(-c2ncc(C(F)(F)F)cc2N2CCC(O)CC2)o1` [Example 328]: the EC50 is over 800 nM. For `C[C@H]1CN(c2cc(C#N)cnc2-c2nnc(N[C@H]3N=C(c4ccccc4)c4ccccc4NC3=O)o2)CCO1` [Example 329], the EC50 was under 400 nM. Consider `Cc1cc(-c2nnc(N[C@H]3N=C(c4ccccc4)c4ccccc4NC3=O)o2)c(N2CCOCC2)s1` [Example 330], for which the EC50 is under 400 nM.

As for `N#CCNc1cc(C(F)(F)F)cnc1-c1nnc(N[C@H]2N=C(c3ccccc3)c3ccccc3NC2=O)o1` [Example 331], the EC50 is over 800 nM.

With `CS(=O)(=O)c1cnc(-c2nnc(N[C@H]3N=C(c4ccccc4)c4ccccc4NC3=O)o2)c(N2CCOCC2)c1` [Example 332], the EC50 was over 800 nM. On to `N#Cc1cnc(-c2nnc(N[C@H]3N=C(c4ccccc4)c4ccccc4NC3=O)o2)c(N2C3CCC2COC3)c1` [Example 333], for which the EC50 was 400 to 800 nM. Then `COCCNc1sc(C)nc1-c1nnc(N[C@H]2N=C(c3ccccc3)c3ccccc3NC2=O)o1` [Example 335], with under 400 nM; and `Cc1nc(-c2nnc(N[C@H]3N=C(c4ccccc4)c4ccccc4NC3=O)o2)c(N2CCOCC2)o1` [Example 337], with under 400 nM. For the compound `COc1ccccc1-c1nc(-c2nnc(N[C@H]3N=C(c4ccccc4)c4ccccc4NC3=O)o2)c(N2CCOCC2)s1` [Example 342], the EC50 was under 400 nM. Next, `Cc1nc(-c2nnc(N[C@H]3N=C(c4ccccc4)c4ccccc4NC3=O)o2)cs1` [Example 343]: over 800 nM; `Cc1nc(-c2nnc(N[C@H]3N=C(c4ccccc4)c4ccccc4NC3=O)o2)c(Cl)s1` [Example 344]: over 800 nM. Consider `Cc1nc(-c2nnc(N[C@H]3N=C(c4ccccc4)c4ccccc4NC3=O)o2)c(C2=CCOCC2)s1` [Example 345, (S)-3-((5-(5-(3,6-dihydro-2H-pyran-4-yl)-2-methylthiazol-4-yl)-1,3,4-oxadiazol-2-yl)amino)-5-phenyl-1,3-dihydro-2H-benzo[e][1,4]diazepin-2-one], for which the EC50 is under 400 nM. For `Cc1nc(-c2nnc(N[C@H]3N=C(c4ccccc4)c4ccccc4NC3=O)o2)c(C2CCOCC2)s1` [Example 346, (S)-3-((5-(2-methyl-5-(tetrahydro-2H-pyran-4-yl)thiazol-4-yl)-1,3,4-oxadiazol-2-yl)amino)-5-phenyl-1,3-dihydro-2H-benzo[e][1,4]diazepin-2-one], the EC50 was under 400 nM. In the case of `O=C1Nc2ccccc2C(c2ccccc2)=N[C@@H]1Nc1nnc(-c2ncsc2C2=CCOCC2)o1` [Example 347], the EC50 was under 400 nM. Next, `O=C1Nc2ccccc2C(c2ccccc2)=N[C@@H]1Nc1nnc(-c2occc2N2CCOCC2)o1` [Example 348]: under 400 nM; `O=C1Nc2ccccc2C(c2ccccc2)=N[C@@H]1Nc1nnc(-c2ccnn2-c2ccccc2)o1` [Example 349]: over 800 nM; `O=C1Nc2ccccc2C(c2ccccc2)=N[C@@H]1Nc1nnc(-c2cnn(-c3ccccc3)c2)o1` [Example 350]: 400 to 800 nM. Consider `O=C1Nc2ccccc2C(c2ccccc2)=NC1Nc1nnc(-c2ccccc2C2=CCOCC2)o1` (centres unmarked) [Example 353, 3-((5-(2-(3,6-dihydro-2H-pyran-4-yl)phenyl)-1,3,4-oxadiazol-2-yl)amino)-5-phenyl-1,3-dihydro-2H-benzo[e][1,4]diazepin-2-one], for which the EC50 is over 800 nM. Consider `O=C1Nc2ccccc2C(c2ccccc2)=NC1Nc1nnc(-c2ccccc2C2CCOCC2)o1` (centres unmarked) [Example 354], for which the EC50 was over 800 nM. In the case of `O=C1Nc2c(F)cccc2C(c2ccccc2)=N[C@H]1Nc1nnc(-c2ccccc2N2CCOCC2)o1` [Example 355b], the EC50 is over 800 nM. Take `O=C1Nc2c(F)cccc2C(c2ccccc2)=NC1Nc1nnc(-c2ccc(N3CCOCC3)cc2)o1` (centres unmarked) [Example 356]: the EC50 was 400 to 800 nM.
